{"source": "patent US20070270337A1", "about": "“Pharmaceutical Compositions for Preventing or Treating Th1-Mediated Immune Diseases” (Daiichi Asubio Pharma Co., Ltd., priority 2003, published 2007)", "key": {"human monocytes": {"test_system": "human monocytes", "assay": "cGMP producing activity in monocytes", "type": "cell-based", "settings": "10^-12 to 10^-6 M, 15 minutes", "experimental": "(§1) For experiments, the leukocyte layer (buffy coats) of peripheral blood from healthy volunteers (provided by Kyoto Red Cross Blood Center, Japan) was used. After the peripheral blood monocyte fraction was separated by density gradient centrifugation using Ficoll-Paque, the fraction was applied to a magnetic bead column using MACS CD14 or cultured in cell culture flasks at 37° C. for 1 hour to select the adhered cells, thereby separating monocytes. Immature dendritic cells were obtained by culturing the monocytes (2×10^5 cells/ml) for 7 days at 37° C. in the presence of 10% fetal bovine serum, 50 ng/mL human GM-CSF and 20 ng/mL human IL-4.\n(§2) After the cells (1×10^5 cells/sample) were incubated in 500 μL of 10 mM HEPES, 0.5 mM 3-isobutyl-1-methylxanthine and 1 μM phospholamidon at 37° C. for 10 minutes, ANP or CNP was added to a final concentration of 10^−12 to 10^−6 M and incubation was continued for an additional 15 minutes. After the cells were washed and lysed, the intracellular cGMP concentration was measured by the ELISA method."}, "immature dendritic cells": {"test_system": "immature dendritic cells", "assay": "cGMP producing activity in immature dendritic cells", "type": "cell-based, human", "settings": "10^-12 to 10^-6 M, 15 minutes", "experimental": "as §1, §2"}, "dendritic cells": {"test_system": "dendritic cells", "assay": "Cytokine production from dendritic cells (ELISA)", "type": "cell-based, human", "settings": "for IL-10 production from dendritic cells / IL-12 production from dendritic cells / TNFα production from dendritic cells: LPS (1 μg/mL) stimulated, 24 hours, ANP 10^-8 to 10^-6 M, CNP 10^-6 M", "experimental": "as §1\nDendritic cells were incubated for 24 hours with LPS (1 μg/mL) in the presence or absence of ANP (10^−8 M to 10^−6 M) or CNP (10^−6 M), and the levels of IL-12, IL-10 and TNFα in each culture supernatant were measured by the ELISA method."}, "[1]": {"test_system": "naive T cells co-cultured with dendritic cells", "assay": "Intracellular cytokine expression in naive T cells (dendritic cell-driven Th1/Th2 polarization, flow cytometry)", "type": "cell-based, human", "settings": "dendritic cells pretreated with LPS (1 μg/mL) + ANP (10^-7 M) versus LPS alone; Sample #1 and #2", "experimental": "as §1\nDendritic cells were activated by being pre-incubated for 24 hours with LPS (1 μg/mL) in the presence or absence of ANP (10^−7 M) and then irradiated (30 Gy) to eliminate their proliferation ability. These dendritic cells (1×10^5 cells/well) and naive T cells separated from cord blood (1×10^6 cells/well) were co-cultured for 6 days. After the T cells were grown in the presence of IL-2 (50 U/mL) for an additional 8 days, the T cells were collected and stimulated for 4 hours with 50 ng/mL phorbol ester (PMA) and 500 ng/mL ionomycin. Two hours before completion of the incubation, Brefeldin A (10 μg/mL) was added. […] IFN-γ positive cells were determined as Th1-type cells, while IL-4 positive cells were determined as Th2-type cells."}, "[2]": {"test_system": "naive CD4+ T cells cultured with dendritic cells", "assay": "T cell proliferation induced by activated dendritic cells ([3H]-thymidine uptake)", "type": "cell-based, human", "experimental": "as §1\nNaive T cells (naive CD4^+ T cells) were isolated from the monocyte fraction of umbilical cord blood using magnetic beads for MACS CD4^+ T cell isolation. Dendritic cells were activated by being cultured for 24 hours with lipopolysaccharide (LPS, 1 μg/mL) in the presence or absence of ANP (10^−7 M). The cells were washed and irradiated (30 Gy) to eliminate their proliferation ability, followed by culturing together with the naive T cells (1×10^5 cells/well) for 6 days. The T cells were evaluated for their proliferation ability by 8 hour uptake of [methyl-^3H]-thymidine (0.5 μCi/well)."}}, "data": [{"compound": "CC[C@H](C)[C@@H]1NC(=O)[C@H](CCCNC(=N)N)NC(=O)[C@H](CC(=O)O)NC(=O)[C@H](CCSC)NC(=O)[C@H](CCCNC(=N)N)NC(=O)CNC(=O)CNC(=O)[C@H](Cc2ccccc2)NC(=O)[C@@H](NC(=O)[C@H](CO)NC(=O)[C@H](CO)NC(=O)[C@H](CCCNC(=N)N)NC(=O)[C@H](CCCNC(=N)N)NC(=O)[C@H](CC(C)C)NC(=O)[C@@H](N)CO)CSSC[C@@H](C(=O)N[C@@H](CC(N)=O)C(=O)N[C@@H](CO)C(=O)N[C@@H](Cc2ccccc2)C(=O)N[C@@H](CCCNC(=N)N)C(=O)N[C@@H](Cc2ccc(O)cc2)C(=O)O)NC(=O)CNC(=O)[C@H](CC(C)C)NC(=O)CNC(=O)[C@H](CO)NC(=O)[C@H](CCC(N)=O)NC(=O)[C@H](C)NC(=O)CNC1=O", "note": "[ANP, atrial natriuretic peptide]", "values": [{"measurement": "intracellular cGMP levels", "setting": "human monocytes", "result": "little increase in cGMP levels at all concentrations"}, {"measurement": "intracellular cGMP levels", "setting": "immature dendritic cells", "result": "increase intracellular cGMP levels in dendritic cells in a concentration-dependent manner from a concentration as low as 10^−12 M"}, {"measurement": "IL-10 production from dendritic cells", "setting": "dendritic cells", "result": "enhance IL-10 production"}, {"measurement": "IL-12 production from dendritic cells", "setting": "dendritic cells", "result": "decrease both IL-12 and TNFα levels in a concentration-dependent manner"}, {"measurement": "TNFα production from dendritic cells", "setting": "dendritic cells", "result": "decrease both IL-12 and TNFα levels in a concentration-dependent manner"}, {"measurement": "IL-12, TNF-α and IL-10 production from dendritic cells", "setting": "dendritic cells; LPS-unstimulated dendritic cells, ANP alone", "result": "no effect on these cytokine productions"}, {"measurement": "IFN-γ-producing cells (Th1-type)", "setting": "[1]", "result": "decrease in IFN-γ-producing cells"}, {"measurement": "IL-4-producing cells (Th2-type)", "setting": "[1]", "result": "increase in IL-4-producing cells"}, {"measurement": "T cell proliferation induced by LPS-treated dendritic cells", "setting": "[2]; ANP (10^-7 M) added simultaneously with LPS (1 μg/mL)", "result": "almost completely inhibited"}, {"measurement": "proliferation of naive T cells", "setting": "[2]; dendritic cells treated with ANP (10^-7 M) alone, without LPS", "result": "no effect on proliferation of naive T cells"}]}, {"compound": "C-type natriuretic peptide [CNP, reference compound]", "values": [{"measurement": "intracellular cGMP levels", "setting": "human monocytes", "result": "no effect on intracellular cGMP levels"}, {"measurement": "intracellular cGMP levels", "setting": "immature dendritic cells", "result": "no effect on intracellular cGMP levels"}, {"measurement": "IL-10 production from dendritic cells", "setting": "dendritic cells", "result": "no effect on cytokine expression"}, {"measurement": "IL-12 production from dendritic cells", "setting": "dendritic cells", "result": "no effect on cytokine expression"}, {"measurement": "TNFα production from dendritic cells", "setting": "dendritic cells", "result": "no effect on cytokine expression"}]}]}
